Laboratory results taken from ChEMBL document CHEMBL3885861, “Open TG-GATES”.

Species on record: Rattus norvegicus
Test: Open TG-GATES - Regimen: Single
Format: toxicity, organism-based, Sprague-Dawley
Design: regimen Single, gender Male, age 6 weeks
Conditions: in vivo, po, route gavage; for gamma-GTP / ALP / ALT / AST / BUN / CRE / Ca / Cl / DBIL / GLC / IP / K / LDH / Na / PL / RALB / TBIL / TC / TG / TP: tissue Plasma; for APTT / Bas / Eos / Fbg / Hb / Ht / Lym / MCH / MCHC / MCV / Mono / Neu / PT / Plat / RBC / Ret: tissue Blood; for KIDNEY_L / KIDNEY_R / KIDNEY_TOTAL: tissue Kidney; for LIVER: tissue Liver
[1] = 100 mg/kg, 24 h, dose level Low

COc1ccc2[nH]c([S+]([O-])Cc3ncc(C)c(OC)c3C)nc2c1 (centres undefined) [OMEPRAZOLE]
gamma-GTP (0 mg/kg, 24 h, dose level Control): 1.4 IU/L | TERMINAL_BW (100 mg/kg, 3 h, dose level Low): 221.4 g | APTT (100 mg/kg, 3 h, dose level Low): 18.4 s | Bas (100 mg/kg, 3 h, dose level Low): 0% | Eos (100 mg/kg, 3 h, dose level Low): 1.2% | Fbg (100 mg/kg, 3 h, dose level Low): 209.8 mg/dL | Hb (100 mg/kg, 3 h, dose level Low): 12.8 g/dL | Ht (100 mg/kg, 3 h, dose level Low): 37.6% | Lym (100 mg/kg, 3 h, dose level Low): 77.2% | MCH (100 mg/kg, 3 h, dose level Low): 21.2 pg | MCHC (100 mg/kg, 3 h, dose level Low): 34.1% | MCV (100 mg/kg, 3 h, dose level Low): 62.2 fL | Mono (100 mg/kg, 3 h, dose level Low): 3.4% | Neu (100 mg/kg, 3 h, dose level Low): 18% | PT (100 mg/kg, 3 h, dose level Low): 12.6 s | Plat (100 mg/kg, 3 h, dose level Low): 122.2 x10_4/uL | RBC (100 mg/kg, 3 h, dose level Low): 603.6 x10_4/ul | Ret (100 mg/kg, 3 h, dose level Low): 6.9% | KIDNEY_L (100 mg/kg, 3 h, dose level Low): 1 g | KIDNEY_R (100 mg/kg, 3 h, dose level Low): 1 g | KIDNEY_TOTAL (100 mg/kg, 3 h, dose level Low): 2 g | LIVER (100 mg/kg, 3 h, dose level Low): 10.2 g | ALP (100 mg/kg, 3 h, dose level Low): 983 IU/L | ALT (100 mg/kg, 3 h, dose level Low): 33.8 IU/L | AST (100 mg/kg, 3 h, dose level Low): 73.6 IU/L | BUN (100 mg/kg, 3 h, dose level Low): 11.6 mg/dL | CRE (100 mg/kg, 3 h, dose level Low): 0.4 mg/dL | Ca (100 mg/kg, 3 h, dose level Low): 10.6 mg/dL | Cl (100 mg/kg, 3 h, dose level Low): 100.6 meq/L | DBIL (100 mg/kg, 3 h, dose level Low): 0.078 mg/dL | GLC (100 mg/kg, 3 h, dose level Low): 201.4 mg/dL | IP (100 mg/kg, 3 h, dose level Low): 9.1 mg/dL | K (100 mg/kg, 3 h, dose level Low): 4 meq/L | LDH (100 mg/kg, 3 h, dose level Low): 180.6 IU/L | Na (100 mg/kg, 3 h, dose level Low): 140.2 meq/L | PL (100 mg/kg, 3 h, dose level Low): 144.8 mg/dL | RALB (100 mg/kg, 3 h, dose level Low): 3.3 g/dL | TBIL (100 mg/kg, 3 h, dose level Low): 0.1 mg/dL | TC (100 mg/kg, 3 h, dose level Low): 74.2 mg/dL | TG (100 mg/kg, 3 h, dose level Low): 86.6 mg/dL | TP (100 mg/kg, 3 h, dose level Low): 5.4 g/dL | gamma-GTP (100 mg/kg, 3 h, dose level Low): 0.8 IU/L | TERMINAL_BW (100 mg/kg, 6 h, dose level Low): 217.8 g | APTT (100 mg/kg, 6 h, dose level Low): 19.2 s | Bas (100 mg/kg, 6 h, dose level Low): 0% | Eos (100 mg/kg, 6 h, dose level Low): 1% | Fbg (100 mg/kg, 6 h, dose level Low): 217 mg/dL | Hb (100 mg/kg, 6 h, dose level Low): 13.2 g/dL | Ht (100 mg/kg, 6 h, dose level Low): 38.6% | Lym (100 mg/kg, 6 h, dose level Low): 76% | MCH (100 mg/kg, 6 h, dose level Low): 21.1 pg | MCHC (100 mg/kg, 6 h, dose level Low): 34.2% | MCV (100 mg/kg, 6 h, dose level Low): 61.7 fL | Mono (100 mg/kg, 6 h, dose level Low): 4% | Neu (100 mg/kg, 6 h, dose level Low): 18.8% | PT (100 mg/kg, 6 h, dose level Low): 12.9 s | Plat (100 mg/kg, 6 h, dose level Low): 114.2 x10_4/uL | RBC (100 mg/kg, 6 h, dose level Low): 626.4 x10_4/ul | Ret (100 mg/kg, 6 h, dose level Low): 6.5% | KIDNEY_L (100 mg/kg, 6 h, dose level Low): 1 g | KIDNEY_R (100 mg/kg, 6 h, dose level Low): 1 g | KIDNEY_TOTAL (100 mg/kg, 6 h, dose level Low): 2 g | LIVER (100 mg/kg, 6 h, dose level Low): 10.1 g | ALP (100 mg/kg, 6 h, dose level Low): 849 IU/L | ALT (100 mg/kg, 6 h, dose level Low): 32 IU/L | AST (100 mg/kg, 6 h, dose level Low): 65 IU/L | BUN (100 mg/kg, 6 h, dose level Low): 9.4 mg/dL | CRE (100 mg/kg, 6 h, dose level Low): 0.4 mg/dL | Ca (100 mg/kg, 6 h, dose level Low): 10.6 mg/dL | Cl (100 mg/kg, 6 h, dose level Low): 102.4 meq/L | DBIL (100 mg/kg, 6 h, dose level Low): 0.074 mg/dL | GLC (100 mg/kg, 6 h, dose level Low): 197.8 mg/dL | IP (100 mg/kg, 6 h, dose level Low): 9.4 mg/dL | K (100 mg/kg, 6 h, dose level Low): 4 meq/L | LDH (100 mg/kg, 6 h, dose level Low): 219.6 IU/L | Na (100 mg/kg, 6 h, dose level Low): 141 meq/L | PL (100 mg/kg, 6 h, dose level Low): 159.6 mg/dL | RALB (100 mg/kg, 6 h, dose level Low): 3.3 g/dL | TBIL (100 mg/kg, 6 h, dose level Low): 0.1 mg/dL | TC (100 mg/kg, 6 h, dose level Low): 86.2 mg/dL | TG (100 mg/kg, 6 h, dose level Low): 83.4 mg/dL | TP (100 mg/kg, 6 h, dose level Low): 5.4 g/dL | gamma-GTP (100 mg/kg, 6 h, dose level Low): 1 IU/L | TERMINAL_BW (100 mg/kg, 9 h, dose level Low): 217.8 g | APTT (100 mg/kg, 9 h, dose level Low): 20.7 s | Bas (100 mg/kg, 9 h, dose level Low): 0% | Eos (100 mg/kg, 9 h, dose level Low): 0.8% | Fbg (100 mg/kg, 9 h, dose level Low): 217.6 mg/dL | Hb (100 mg/kg, 9 h, dose level Low): 12.9 g/dL | Ht (100 mg/kg, 9 h, dose level Low): 37.5% | Lym (100 mg/kg, 9 h, dose level Low): 76.8% | MCH (100 mg/kg, 9 h, dose level Low): 20.9 pg | MCHC (100 mg/kg, 9 h, dose level Low): 34.5% | MCV (100 mg/kg, 9 h, dose level Low): 60.6 fL | Mono (100 mg/kg, 9 h, dose level Low): 3.4% | Neu (100 mg/kg, 9 h, dose level Low): 18.4% | PT (100 mg/kg, 9 h, dose level Low): 12.8 s | Plat (100 mg/kg, 9 h, dose level Low): 130.5 x10_4/uL | RBC (100 mg/kg, 9 h, dose level Low): 620.2 x10_4/ul | Ret (100 mg/kg, 9 h, dose level Low): 6.8% | KIDNEY_L (100 mg/kg, 9 h, dose level Low): 1 g | KIDNEY_R (100 mg/kg, 9 h, dose level Low): 1 g | KIDNEY_TOTAL (100 mg/kg, 9 h, dose level Low): 2.1 g | LIVER (100 mg/kg, 9 h, dose level Low): 9.7 g | ALP (100 mg/kg, 9 h, dose level Low): 826.2 IU/L | ALT (100 mg/kg, 9 h, dose level Low): 28.8 IU/L | AST (100 mg/kg, 9 h, dose level Low): 56.8 IU/L | BUN (100 mg/kg, 9 h, dose level Low): 9 mg/dL | CRE (100 mg/kg, 9 h, dose level Low): 0.3 mg/dL | Ca (100 mg/kg, 9 h, dose level Low): 10.3 mg/dL | Cl (100 mg/kg, 9 h, dose level Low): 101 meq/L | DBIL (100 mg/kg, 9 h, dose level Low): 0.066 mg/dL | GLC (100 mg/kg, 9 h, dose level Low): 197.4 mg/dL | IP (100 mg/kg, 9 h, dose level Low): 10.1 mg/dL | K (100 mg/kg, 9 h, dose level Low): 4 meq/L | LDH (100 mg/kg, 9 h, dose level Low): 171.6 IU/L | Na (100 mg/kg, 9 h, dose level Low): 140 meq/L | PL (100 mg/kg, 9 h, dose level Low): 135.8 mg/dL | RALB (100 mg/kg, 9 h, dose level Low): 3.3 g/dL | TBIL (100 mg/kg, 9 h, dose level Low): 0.1 mg/dL | TC (100 mg/kg, 9 h, dose level Low): 71.2 mg/dL | TG (100 mg/kg, 9 h, dose level Low): 68.6 mg/dL | TP (100 mg/kg, 9 h, dose level Low): 5.4 g/dL | gamma-GTP (100 mg/kg, 9 h, dose level Low): 1 IU/L | TERMINAL_BW [1]: 234.1 g | APTT [1]: 19.3 s | Bas [1]: 0% | Eos [1]: 1% | Fbg [1]: 216.2 mg/dL | Hb [1]: 12.8 g/dL | Ht [1]: 37.6% | Lym [1]: 84.4% | MCH [1]: 21.2 pg | MCHC [1]: 34% | MCV [1]: 62.2 fL | Mono [1]: 2.4% | Neu [1]: 12% | PT [1]: 12.6 s | Plat [1]: 130.1 x10_4/uL | RBC [1]: 604.8 x10_4/ul | Ret [1]: 6.9% | KIDNEY_L [1]: 1 g | KIDNEY_R [1]: 1.1 g | KIDNEY_TOTAL [1]: 2.1 g | LIVER [1]: 11.2 g | ALP [1]: 851.2 IU/L | ALT [1]: 28.4 IU/L | AST [1]: 57.8 IU/L | BUN [1]: 15.8 mg/dL | CRE [1]: 0.4 mg/dL | Ca [1]: 10.6 mg/dL | Cl [1]: 101 meq/L | DBIL [1]: 0.092 mg/dL | GLC [1]: 209.4 mg/dL | IP [1]: 9.3 mg/dL | K [1]: 4.4 meq/L | LDH [1]: 195.8 IU/L | Na [1]: 140.2 meq/L | PL [1]: 145.4 mg/dL | RALB [1]: 3.2 g/dL | TBIL [1]: 0.1 mg/dL | TC [1]: 77.8 mg/dL | TG [1]: 89.8 mg/dL | TP [1]: 5.3 g/dL
